Series [1] has as its target T1, mMOR (Mus musculus, UniProt P42866).
T1 construct: expressed in transfected cells
Kind of series: Radioligand competition binding ([125I]IBNtxA), CHO membranes, mMOR. Conditions: vs 125IBNtxA (0.1 nM), mean ± SEM. For orientation: In a radioligand displacement assay an active substance lowers the binding of a labelled ligand.

Series [2] has as its target T2, mKOR (Mus musculus, UniProt P33534).
T2 construct: expressed in transfected cells
Kind of series: Radioligand competition binding ([125I]IBNtxA), CHO membranes, mKOR. Conditions: vs 125IBNtxA (0.1 nM), mean ± SEM.

For series [3], the target named is T3, mDOR (Mus musculus, UniProt P32300).
T3 construct: expressed in transfected cells
In words: Radioligand competition binding ([125I]IBNtxA), CHO membranes, mDOR. Conditions: vs 125IBNtxA (0.1 nM), CHO membranes, mean ± SEM.

Series [4] has as its target T1, mMOR. Kind of series: [35S]GTPγS functional assay, mMOR. The class given is biochemical. A general note: Binding of GTPγS marks nucleotide exchange on a G protein.
Series [5] addresses T2, mKOR. In words: [35S]GTPγS functional assay, mKOR. It is filed as biochemical.
Series [6] has as its target T3, mDOR. In words: [35S]GTPγS functional assay, mDOR. The class given is biochemical.
The target in series [7] is T4, hMOR (Homo sapiens, UniProt P35372).
T4 construct: expressed in transfected cells; host or cells: HEK 293T (ATCC CRL-11268), transient
In words: cell-based. The class given is cell-based.

Series [8] deals with T4, hMOR. Kind of series: Tango β-arrestin recruitment assay, hMOR. Conditions: Tango. The class given is cell-based. (In general: Recruitment of arrestin is a read-out of receptor activation apart from second messengers.)
Series [9] concerns the target T5, hKOR (Homo sapiens, UniProt P41145).
T5 construct: expressed in transfected cells; host or cells: HEK 293T (ATCC CRL-11268), transient
Kind of series: cAMP inhibition assay (GloSensor, HEK 293T), hKOR. It is filed as cell-based.

Series [10] addresses T5, hKOR. In words: Tango β-arrestin recruitment assay, hKOR. The class given is cell-based.
Series [11] deals with T6, mouse mu opioid receptor (mMOR) (Mus musculus, UniProt P42866).
T6 construct: expressed in transfected cells; host or cells: HEK-293T, transient (PEI), with BRET sensor cDNAs
Kind of series: cell-based. It is filed as cell-based.

In series [12] the target is T6, mouse mu opioid receptor (mMOR). Kind of series: cell-based. The class given is cell-based. This is another data set of the same source.
In series [13] the target is T7, rat kappa opioid receptor (rKOR) (Rattus norvegicus, UniProt P34975).
T7 construct: expressed in transfected cells; host or cells: HEK-293T, transient (PEI), with BRET sensor cDNAs
In words: BRET assay, G-protein activation, rKOR. It is filed as cell-based.

Series [14] deals with T7, rat kappa opioid receptor (rKOR). Kind of series: BRET assay, arrestin recruitment, rKOR. The class given is cell-based. Conditions: BRET.
For series [15], the target named is T8, mouse delta opioid receptor (mDOR) (Mus musculus, UniProt P32300).
T8 construct: expressed in transfected cells; host or cells: HEK-293T, transient (PEI), with BRET sensor cDNAs
In words: BRET assay, G-protein activation, mDOR. It is filed as cell-based.

For series [16], the system named is C57BL/6J mice. In words: 55° C. warm-water tail-withdrawal assay. Particulars: icv, 55° C. tail withdrawal. It is filed as in vivo, mouse. As to the method:
Tail-withdrawal assay The 55° C. warm-water tail-withdrawal assay was conducted in mice as a measure of acute thermal antinociception as described previously (Reilley et al., 2010). Briefly, each mouse was tested for baseline tail-withdrawal latency prior to drug administration. Following drug administration, the latency for each mouse to withdraw the tail was measured every 10 minutes until latency returned to the baseline value. A maximum response time of 15 seconds was utilized to prevent tissue damage. […] Data are reported as percent antinociception, calculated by the equation: % antinociception=100×[(test latency−baseline latency)/(15−baseline latency)]. This was utilized to account for innate variability between mice. Compounds were administered either, […] (IP) or intracerebroventricular (icv) and the analgesic action of compounds was assessed at the peak effect as described previously (Haley and McCormick, 1957). In brief, mice were anesthetized using isoflurane. A small incision was made, and the drug (2 μl/mouse) was injected (using a 10 μL Hamilton syringe fitted to a 27-gauge needle) into the right lateral ventricle at the following coordinates: 2 mm caudal to bregma, 2 mm lateral to sagittal suture, and 2 mm in depth. Mice were tested for analgesia at the peak effect post injection.

The target of series [17] is T9, hDOR (Homo sapiens, UniProt P41143). In words: cAMP inhibition assay, hDOR. The class given is cell-based. More on the design: expressed in transfected cells.
Series [18] deals with T10, Y312W-hKOR (Homo sapiens, UniProt P41145, Y312W). In words: Tango-arrestin recruitment assay, Y312W-hKOR mutant. The class given is cell-based. More on the design: expressed in transfected cells. Particulars: Tango, compared with wild-type KOR.
Series [19] deals with T9, hDOR. Kind of series: Tango β-arrestin recruitment assay, hDOR. It is filed as cell-based. Details: expressed in transfected cells; host or cells: HTLA cells expressing TEV fused-beta-Arrestin2.
Series [20] has as its target T10, Y312W-hKOR. Kind of series: cAMP inhibition assay, Y312W-hKOR mutant. The class given is cell-based. More on the design: expressed in transfected cells; host or cells: HEK 293T (inferred from the general cAMP method).
Series [21] has as its system C57BL/6J mice. Conditions: icv, same assay (Aldrich et al., 2014); cited from earlier work.
The subject of another series is C57 mice. In words: Respiratory rate (CLAMS). Particulars: 10 mg/kg IP or 30 nmol icv, 10 mg/kg.
The subject of series [22] is C57BL/6J mice. Kind of series: Conditioned place preference and aversion. Conditions: MP1207 100 nmol icv, morphine 10 mg/kg IP, U50,488h 30 mg/kg IP.

One may read the Ki as a dissociation constant, usually derived from enzyme kinetics or from competition with a known ligand. Low readings indicate higher affinity, high ones lower affinity. As usually defined, the Emax is the maximal effect, on the per cent scale that the assay sets. Broadly, the EC50 is the concentration needed to bring the measured effect to its halfway point. For orientation: IC50 means the concentration at which inhibition is half-maximal.

Where “and” joins values, the source holds several entries; their conditions need not be identical. Equal entries are not always repeated. Entries after “also recorded” stand apart in the source; their conditions may differ. Where two headings read alike, the source gives them in different places.

For the compound `N=C(N)NCc1cccc(C(=O)N[C@@H]2CCC3C4Cc5ccc(O)c6c5[C@@]3(CCN4CC3CC3)C2O6)c1` (stereo partly drawn) [MP1208, N-((7R,12bS)-3-(Cyclopropylmethyl)-9-hydroxy-2,3,4,4a,5,6,7,7a-octahydro-1H-4,12-methanobenzofuro[3,2-e]isoquinolin-7-yl)-3-(guanidinomethyl)benzamide], the values for the Ki at mMOR [1], on mKOR [2] and on mDOR [3] were 0.34 ± 0.01 nM, 0.28 nM and 19.3 nM, respectively. The Emax on mMOR [4] is 54 ± 0.7%; on mKOR [5], 43 ± 0.8%; on mDOR [6], 10 to 15%; at hMOR [7] (HEK-293T, read-out: Gi Emax hMOR) it was 42 ± 1.3%; at hKOR [9] (HEK-293T, read-out: Gi Emax hKOR), 96 ± 1.9%; on hKOR [10], 48 ± 2.4%. In addition, the Emax stood at 41 ± 3% in [11] (read-out: Gi Emax mMOR); 40 ± 2.4% in series [13] (read-out: Gi Emax rKOR); 58 ± 3.3% in series [15] (read-out: G-Protein activation Emax % ± SEM); 39 ± 1.8% at hDOR [17] (read-out: cAMP inhibition Emax % ± SEM); 62 ± 16.7% on hDOR [19] (read-out: Arrestin recruitment Emax % ± SEM); 97 ± 1% at Y312W-hKOR [20] (read-out: Gi Emax Y312W-hKOR). Also, the EC50 at mMOR [4] ([35S]GTPγS, nM ± SEM) is 1.1 nM and 1.13 nM; on mKOR [5] ([35S]GTPγS, nM ± SEM), 1.4 nM and 1.36 nM; on hMOR [7] it was 1.86 nM; on hMOR [7] (read-out: Gi EC50 hMOR), 0.008 nM; on hKOR [9] (cAMP inhibition, read-out: Gi EC50 hKOR), 0.14 nM; at hKOR [10] (Tango, WT-hKOR), 16.4 nM. Further, the EC50 in [13] (BRET, read-out: Gi EC50 rKOR) came to 1.1 nM; in [15] (mDOR, BRET) it was 26.6 nM; on hDOR [19] (hDOR, Tango) it was 3620 nM. Moreover, on mDOR [6] ([35S]GTPγS), the “efficacy at mDOR” value is “only weak efficacy”. The IC50 at mDOR [6] ([35S]GTPγS, antagonism vs 100 nM agonist) turned out to be 11.4 ± 0.3 nM. Besides, the “arrestin recruitment at hMOR” value on hMOR [8] is “no recruitment of arrestin was seen; also recorded: no arrestin recruitment was observed”. The “Gi pEC50±SEM hKOR” value on hKOR [9] (cAMP inhibition) is recorded as 9.9±0.07. At hKOR [9] (cAMP inhibition vs Tango, against U50,488H as control), the “Bias factor toward G protein, hKOR” value turned out to be 23. The “Arrestin pEC50±SEM hKOR” value on hKOR [10] (Tango, WT-hKOR) is on record as 7.79±0.14. Moreover, the “Gi pEC50±SEM mMOR” value in series [11] turned out to be 8.64±0.29. The “arrestin recruitment at mMOR” value in [12] was “no recruitment of βarrestin-2; also recorded: no arrestin recruitment was observed”. Further, in series [13] (BRET), the “Gi pEC50±SEM rKOR” value is listed as 8.97±0.29. Also, the “arrestin recruitment at rKOR” value in series [14] is listed as “no recruitment of βarrestin-2; also recorded: no arrestin recruitment was observed”. In addition, the “G-Protein activation pEC50 ± SEM” value in [15] (mDOR, BRET) is 7.6 ± 0.20. Further, the “antinociceptive ED50 (95% CI)” value with C57BL/6J mice [16] is 19.8 (12.6-34.0) nmol and 19.8 nmol. The “cAMP inhibition pEC50 ± SEM” value on hDOR [17] (hDOR) was determined as 8.6 ± 0.13. Besides, the “arrestin recruitment at Y312W-hKOR” value on Y312W-hKOR [18] was “further reduction of arrestin recruitment; also recorded: reduced arrestin measurement”. Further, on hDOR [19] (hDOR, Tango), the “Arrestin recruitment pEC50 ± SEM” value is recorded as 5.5 ± 0.27. The “Gi pEC50±SEM Y312W-hKOR” value at Y312W-hKOR [20] (cAMP inhibition) turned out to be 10.44±0.05.

Take `CN1CC[C@]23c4c5ccc(O)c4O[C@H]2[C@@H](O)C=C[C@H]3[C@H]1C5` [Morphine, reference compound]: the “antinociceptive ED50 (95% CI), reported” value with C57BL/6J mice [21] is 2.35 (1.13-5.03) nmol and 2.35 nmol. Further, the respiratory rate result was “significant reduction in respiratory rates” in the series with C57 mice and “decreased respiratory rate” with C57 mice (listed as morphine). Further, the “conditioned place preference or aversion (CPP/CPA)” value in the series with C57BL/6J mice [22] is recorded as “place preference”.

Values taken from US11613547B2 (priority 2019, dated 2023).
